For 29 compounds, IC50 results are on record in patent publication US20230322785A1, “ADENOSINE A2A AND A2B RECEPTOR DUAL ANTAGONISTS FOR IMMUNO-ONCOLOGY” (Merck Sharp & Dohme LLC, priority 2020, published 2023).

Each structure is given as a SMILES string.

T1 sequence (P29274 whole entry): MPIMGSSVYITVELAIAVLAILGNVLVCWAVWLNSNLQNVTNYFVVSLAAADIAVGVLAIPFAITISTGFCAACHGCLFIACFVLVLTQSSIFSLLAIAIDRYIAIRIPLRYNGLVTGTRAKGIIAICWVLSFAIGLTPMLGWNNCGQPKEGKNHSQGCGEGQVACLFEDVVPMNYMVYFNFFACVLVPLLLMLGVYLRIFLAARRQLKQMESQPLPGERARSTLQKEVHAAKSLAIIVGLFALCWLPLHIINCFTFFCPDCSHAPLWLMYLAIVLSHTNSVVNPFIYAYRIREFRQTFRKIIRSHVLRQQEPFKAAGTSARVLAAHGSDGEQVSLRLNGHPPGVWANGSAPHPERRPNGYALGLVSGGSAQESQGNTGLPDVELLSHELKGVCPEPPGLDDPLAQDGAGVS

The experiment has as its target T1, human A2A adenosine receptor (Homo sapiens, UniProt P29274).
T1 construct: expressed in transfected cells; host or cells: HEK293 or CHO cells
As to the kind of experiment: A2A binding affinity, Method (B): scintillation proximity assay (SPA) with [3H]SCH58261. Conditions: membranes of HEK293 or CHO cells expressing the human receptor. The text has this: Method (A) describes the procedure used to measure A2A binding affinity using radioligand binding. Method (B) describes the procedure used to measure A2A binding affinity using SPA technology. The method used to measure A2B binding affinity is also described below. The method used to determine the A2A IC50 value reported for each compound in the table is indicated next to the reported value. The A2B IC50 value measured using the A2B binding affinity assay is shown in the table next to the compound under the corresponding A2A value.
The A2A receptor affinity binding assay measured the amount of binding of a tritiated ligand with high affinity for the A2A adenosine receptor to membranes made from HEK293 or CHO cells recombinantly expressing the human A2A adenosine receptor, in the presence of varying concentrations of a compound of the invention. The data were generated using either filtration binding or a homogenous scintillation proximity assay (SPA).
Method (B): Measurement of A2A Binding Affinity Using SPA
Binding affinity using SPA was conducted as follows. Test compounds (50 nL) were dispensed into individual wells of a 384-well OptiPlate™ well (Perkin Elmer) by Echo® acoustic liquid transfer (Labcyte). 20 µL of 1.25 nM [^3H] SCH58261 ((7-(2-phenylethyl)-5-amino-2-(2-furyl)-pyrazolo-[4,3-e]-1,2,4-triazolo[1,5-c]pyrimidine)) in DPBS assay buffer (Dulbecco’s phosphate buffered saline without calcium and magnesium, ThermoFisher Scientific, Cat. No. A1285601) supplemented with 10 mM MgCl2 was added. A2A receptor-expressing membranes were incubated with 20 µg/mL adenosine deaminase (Roche, Cat. No. 10 102 105 001) for 15 min at room temperature. The receptor-expressing membranes were then combined with wheat germ agglutinin-coated yttrium silicate SPA beads (GE Healthcare, Cat. No. RPNQ0023) in a ratio of […] (w/w) and incubated for 30 min at room temperature. 30 µL of the membrane/bead mixture (0.25 µg and 25 µg per well respectively) were added to the 384-well OptiPlate™ well. To define total and non-specific binding, wells containing 1% DMSO or 1 µM CGS 15943 (Tocris Bioscience, Cat. No. 1699) respectively were also included in the experiment. The plate was incubated for 1 h at room temperature with agitation. The assay plate was then incubated for an h to allow the beads to settle before data were collected using a TopCount® (Perkin Elmer) scintillation counter. After normalization to total and non-specific binding, the percent effect at each compound concentration was calculated. The plot of percent effect versus the log of compound concentration was analyzed electronically using a 4-parameter logistic fit based on the Levenberg-Marquardt algorithm to generate IC50 values.
Take `COc1cccc2c1nc(N)n1nc(CCN[C@@H](C)c3ccc(C(F)(F)F)cc3)nc21` [Example 22.7, (S)-7-methoxy-2-(2-((1-(4-(trifluoromethyl)phenyl)ethyl)amino)ethyl)-[1,2,4]triazolo[1,5-c]quinazolin-5-amine]: the IC50 was found to be 27.3 nM.
In the case of `CCN(CC)Cc1nc2c3cccc(OC)c3nc(N)n2n1` [Example 5.3, 2-((diethylamino)methyl)-7-methoxy-[1,2,4]triazolo[1,5-c]quinazolin-5-amine], the half-maximal inhibitory concentration (IC50) was determined as 24.4 nM.
Under `COc1cccc2c1nc(N)n1nc(CN(Cc3ccc(NC(=O)C(C)(C)C)nc3)CC3CC3)nc21` [Example 16.9] stands 5.2 nM.
`COc1cccc2c1nc(N)n1nc(CNCC(F)(F)F)nc21` [Example 10.5, 7-methoxy-2-(((2,2,2-trifluoroethyl)amino)methyl)-[1,2,4]triazolo[1,5-c]quinazolin-5-amine] displayed a 50% inhibitory concentration (IC50) of 5.9 nM.
As for `COc1cccc2c1nc(N)n1nc(CNC(=O)NCc3ccc(Cl)cc3)nc21` [Example 20.4, 1-((5-amino-7-methoxy-[1,2,4]triazolo[1,5-c]quinazolin-2-yl)methyl)-3-(4-chlorobenzyl)urea], the IC50 stood at 5.7 nM.
Take `COc1cccc2c1nc(N)n1nc(CN(Cc3ccc(C(F)(F)F)cc3)C[C@@H]3CO3)nc21` [Example 18.1, (R)-7-methoxy-2-(((oxiran-2-ylmethyl)(4-(trifluoromethyl)benzyl)amino)methyl)-[1,2,4]triazolo[1,5-c]quinazolin-5-amine]: the half-maximal inhibitory concentration (IC50) was found to be 20.2 nM.
Compound `COc1cccc2c1nc(N)n1nc(CN[C@H](C)c3ccc(C(F)(F)F)cc3)nc21` [Example 8.2, (R)-7-methoxy-2-(((1-(4-(trifluoromethyl)phenyl)ethyl)amino)methyl)-[1,2,4]triazolo[1,5-c]quinazolin-5-amine] displayed an IC50 of 22.4 nM.
On to `COc1cccc2c1nc(N)n1nc(CN(Cc3ccccn3)CC3CC3)nc21` [Example 16.1, 2-(((cyclopropylmethyl)(pyridin-2-ylmethyl)amino)methyl)-7-methoxy-[1,2,4]triazolo[1,5-c]quinazolin-5-amine], for which the concentration for half-maximal inhibition (IC50) stood at 12.8 nM.
As to `COc1cccc2c1nc(N)n1nc(CNCc3ccc(S(F)(F)(F)(F)F)cc3)nc21` [Example 8.7, 7-methoxy-2-(((4-(pentafluoro-λ^6-sulfanyl)benzyl)amino)methyl)-[1,2,4]triazolo[1,5-c]quinazolin-5-amine], the IC50 was found to be 6.4 nM.
In turn, `COc1cccc2c1nc(N)n1nc(CN(Cc3ccc(OC4CCCCC4)nc3)CC3CC3)nc21` [Example 16.6, 2-((((6-(cyclohexyloxy)pyridin-3-yl)methyl)(cyclopropylmethyl)amino)methyl)-7-methoxy-[1,2,4]triazolo[1,5-c]quinazolin-5-amine] yielded an IC50 of 6.6 nM.
Consider `COc1cccc2c1nc(N)n1nc(CN[C@@H](C)C(F)(F)F)nc21` [Example 10.9], for which the IC50 stood at 5.9 nM.
Under `Nc1nc2c(F)cc(F)cc2c2nc(CCNCc3ccc(C(F)(F)F)cc3)nn12` [Example 10.2, 7,9-difluoro-2-(2-((4-(trifluoromethyl)benzyl)amino)ethyl)-[1,2,4]triazolo[1,5-c]quinazolin-5-amine] stands 110 nM; under `COc1cccc2c1nc(N)n1nc(CCNCC(C)(F)F)nc21` [Example 23.3, 2-(2-((2,2-difluoropropyl)amino)ethyl)-7-methoxy-[1,2,4]triazolo[1,5-c]quinazolin-5-amine], 12.2 nM; under `COc1ccc(CN(Cc2nc3c4cccc(OC)c4nc(N)n3n2)CC2CC2)cc1` [Example 16.14, 2-(((cyclopropylmethyl)(4-methoxybenzyl)amino)methyl)-7-methoxy-[1,2,4]triazolo[1,5-c]quinazolin-5-amine], 7.2 nM.
For the compound `COc1cccc2c1nc(N)n1nc(CN(CCc3ccc(C(F)(F)F)cc3)CC3CCC3)nc21` [Example 15.12, 2-(((cyclobutylmethyl)(4-(trifluoromethyl)phenethyl)amino)methyl)-7-methoxy-[1,2,4]triazolo[1,5-c]quinazolin-5-amine], the concentration for half-maximal inhibition (IC50) worked out at 23.6 nM.
`COc1cccc2c1nc(N)n1nc(CNCC3CCN(c4ncc(F)cn4)CC3)nc21` [Example 14.3, 2-((((1-(5-fluoropyrimidin-2-yl)piperidin-4-yl)methyl)amino)methyl)-7-methoxy-[1,2,4]triazolo[1,5-c]quinazolin-5-amine] returned a concentration for half-maximal inhibition (IC50) of 10 nM.
With `COc1cccc2c1nc(N)n1nc(CN(Cc3ccc(OC(F)(F)F)cc3)CC3CCC3)nc21` [Example 15.10, 2-(((cyclobutylmethyl)(4-(trifluoromethoxy)benzyl)amino)methyl)-7-methoxy-[1,2,4]triazolo[1,5-c]quinazolin-5-amine], the IC50 was found to be 8.5 nM.
Regarding `COc1cccc2c1nc(N)n1nc(CCN(C)Cc3ccc(C(F)(F)F)cc3)nc21` [Example 22.5, 7-methoxy-2-(2-(methyl(4-(trifluoromethyl)benzyl)amino)ethyl)-[1,2,4]triazolo[1,5-c]quinazolin-5-amine], the 50% inhibitory concentration (IC50) stood at 4.1 nM.
On to `COc1cccc2c1nc(N)n1nc(CN(CC3CC3)C3CN(C(=O)OC(C)(C)C)C3)nc21` [Example 16.12, tert-butyl 3-(((5-amino-7-methoxy-[1,2,4]triazolo[1,5-c]quinazolin-2-yl)methyl)(cyclopropylmethyl)amino)azetidine-1-carboxylate], for which the IC50 was determined as 5.7 nM.
Under `COc1cccc2c1nc(N)n1nc(CNCc3cccc(C(F)(F)F)c3)nc21` [Example 8.5, 7-methoxy-2-(((3-(trifluoromethyl)benzyl)amino)methyl)-[1,2,4]triazolo[1,5-c]quinazolin-5-amine] stands 11.2 nM.
As to `COCCN(CCc1ccc(C(F)(F)F)cc1)Cc1nc2c3cccc(OC)c3nc(N)n2n1` [Example 15.14, 7-methoxy-2-(((2-methoxyethyl)(4-(trifluoromethyl)phenethyl)amino)methyl)-[1,2,4]triazolo[1,5-c]quinazolin-5-amine], the IC50 turned out to be 16.5 nM.
`CCN(Cc1ccc(OC(F)(F)F)cc1)Cc1nc2c3cccc(OC)c3nc(N)n2n1` [Example 15.8, 2-((ethyl(4-(trifluoromethoxy)benzyl)amino)methyl)-7-methoxy-[1,2,4]triazolo[1,5-c]quinazolin-5-amine] returned a half-maximal inhibitory concentration (IC50) of 3.2 nM.
The same measure for `COc1cccc2c1nc(N)n1nc(CNCc3ccc(C(F)(F)F)cc3)nc21` [Example 7.1, 7-methoxy-2-(((4-(trifluoromethyl)benzyl)amino)methyl)-[1,2,4]triazolo[1,5-c]quinazolin-5-amine]: 8.9 nM.
Compound `COc1cccc2c1nc(N)n1nc(CN(CCC3CC3)Cc3ccc(C(F)(F)F)cc3)nc21` [Example 15.6, 2-(((2-cyclopropylethyl)(4-(trifluoromethyl)benzyl)amino)methyl)-7-methoxy-[1,2,4]triazolo[1,5-c]quinazolin-5-amine] gave a 50% inhibitory concentration (IC50) of 7.1 nM.
For the compound `COc1cccc2c1nc(N)n1nc(CN(CCC(F)(F)F)CC3CCN(c4ncc(F)cn4)CC3)nc21` [Example 14.4, 2-((((1-(5-fluoropyrimidin-2-yl)piperidin-4-yl)methyl)(3,3,3-trifluoropropyl)amino)methyl)-7-methoxy-[1,2,4]triazolo[1,5-c]quinazolin-5-amine], the concentration for half-maximal inhibition (IC50) came out at 38.2 nM.
`COc1cccc2c1nc(N)n1nc(CN(CC(C)O)CC(C)O)nc21` (centres unmarked) [Example 10.13, 1,1-(((5-amino-7-methoxy-[1,2,4]triazolo[1,5-c]quinazolin-2-yl)methyl)azanediyl)bis(propan-2-ol)]: the IC50 is 32.2 nM.
On to `COc1cccc2c1nc(N)n1nc(CN[C@H](C)[C@@H](O)c3cc(C(F)(F)F)cc(C(F)(F)F)c3)nc21` [Example 10.1, (1S,2R)-2-(((5-amino-7-methoxy-[1,2,4]triazolo[1,5-c]quinazolin-2-yl)methyl)amino)-1-(3,5-bis(trifluoromethyl)phenyl)propan-1-ol], for which the 50% inhibitory concentration (IC50) was found to be 40.2 nM.
Regarding `COc1cccc2c1nc(N)n1nc(CNCC3CC3)nc21` [Example 10.12, 2-(((cyclopropylmethyl)amino)methyl)-7-methoxy-[1,2,4]triazolo[1,5-c]quinazolin-5-amine], the half-maximal inhibitory concentration (IC50) was determined as 27.3 nM.
Regarding `COc1cccc2c1nc(N)n1nc(CNCc3ccc(OC(F)(F)F)cc3)nc21` [Example 8.6, 7-methoxy-2-(((4-(trifluoromethoxy)benzyl)amino)methyl)-[1,2,4]triazolo[1,5-c]quinazolin-5-amine], the concentration for half-maximal inhibition (IC50) was determined as 8.9 nM.
